# Laboratory results as given in PubChem BioAssay (NCI).
#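 96-well plates; 48 h exposure; 5 concentrations. Endpoints by linear interpolation between flanking doses. Not reached: highest tested concentration assigned. TGI denotes the concentration required for complete inhibition of growth.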
# Experiments:
# Assay in all cases: inhibition of tumour cell growth, NCI panel, 48 h
# SNB-75 CNS = test system: SNB-75 CNS
# UACC-257 melanoma = test system: UACC-257 melanoma
# HCC-2998 colon = test system: HCC-2998 colon
# NCI/ADR-RES ovarian = test system: NCI/ADR-RES ovarian
# SK-OV-3 ovarian = test system: SK-OV-3 ovarian
# T-47D breast = test system: T-47D breast
# SR leukemia = test system: SR leukemia
# UACC-62 melanoma = test system: UACC-62 melanoma
# SK-MEL-2 melanoma = test system: SK-MEL-2 melanoma
# SN12C renal = test system: SN12C renal
# U251 CNS = test system: U251 CNS
# MOLT-4 leukemia = test system: MOLT-4 leukemia
# RXF 393 renal = test system: RXF 393 renal
# HT29 colon = test system: HT29 colon
# SW-620 colon = test system: SW-620 colon
# SF-268 CNS = test system: SF-268 CNS
# M14 melanoma = test system: M14 melanoma
# NCI-H226 lung = test system: NCI-H226 lung
# MDA-N = test system: MDA-N
# SNB-78 CNS = test system: SNB-78 CNS
compound,measurement,setting,value
Cc1ccc(NC(=O)c2cccc(OP(=O)(O)Nc3ccc(C)cc3)c2)cc1,TGI,SNB-75 CNS,> 100 µM
same,TGI,UACC-257 melanoma,> 100 µM
same,TGI,HCC-2998 colon,> 100 µM
same,TGI,NCI/ADR-RES ovarian,> 100 µM
same,TGI,SK-OV-3 ovarian,> 100 µM
same,TGI,T-47D breast,> 100 µM
same,TGI,SR leukemia,> 100 µM
same,TGI,UACC-62 melanoma,> 100 µM
same,TGI,SK-MEL-2 melanoma,> 100 µM
same,TGI,SN12C renal,> 100 µM
same,TGI,U251 CNS,> 100 µM
same,TGI,MOLT-4 leukemia,> 100 µM
same,TGI,RXF 393 renal,> 100 µM
same,TGI,HT29 colon,> 100 µM
same,TGI,SW-620 colon,> 100 µM
same,TGI,SF-268 CNS,> 100 µM
same,TGI,M14 melanoma,> 100 µM
same,TGI,NCI-H226 lung,> 100 µM
same,TGI,MDA-N,> 100 µM
C=C1CCC23CC(CC[C@@H]2[C@@]12C[C@@H](c1ccoc1)OC2=O)OC3=O (stereo not given in full),TGI,UACC-257 melanoma,> 100 µM
same,TGI,HCC-2998 colon,> 100 µM
same,TGI,SK-OV-3 ovarian,> 100 µM
same,TGI,UACC-62 melanoma,> 100 µM
same,TGI,SK-MEL-2 melanoma,> 100 µM
same,TGI,SNB-78 CNS,> 100 µM
same,TGI,SN12C renal,> 100 µM
same,TGI,U251 CNS,> 100 µM
same,TGI,MOLT-4 leukemia,> 100 µM
same,TGI,HT29 colon,> 100 µM
same,TGI,SW-620 colon,> 100 µM
same,TGI,SF-268 CNS,> 100 µM
same,TGI,M14 melanoma,> 100 µM
same,TGI,NCI-H226 lung,> 100 µM
CC(C)(C)C1=CC(=C(c2ccc(-c3c4nc(c(-c5ccc(C(=C6C=C(C(C)(C)C)C(=O)C(C(C)(C)C)=C6)c6cc(C(C)(C)C)c(O)c(C(C)(C)C)c6)cc5)c5ccc([nH]5)c(-c5ccc(C(=C6C=C(C(C)(C)C)C(=O)C(C(C)(C)C)=C6)c6cc(C(C)(C)C)c(O)c(C(C)(C)C)c6)cc5)c5nc(c(-c6ccc(C(=C7C=C(C(C)(C)C)C(=O)C(C(C)(C)C)=C7)c7cc(C(C)(C)C)c(O)c(C(C)(C)C)c7)cc6)c6ccc3[nH]6)C=C5)C=C4)cc2)c2cc(C(C)(C)C)c(O)c(C(C)(C)C)c2)C=C(C(C)(C)C)C1=O,TGI,SNB-75 CNS,> 100 µM
same,TGI,UACC-257 melanoma,> 100 µM
same,TGI,HCC-2998 colon,> 100 µM
same,TGI,NCI/ADR-RES ovarian,> 100 µM
same,TGI,SK-OV-3 ovarian,> 100 µM
same,TGI,T-47D breast,> 100 µM
same,TGI,SR leukemia,> 100 µM
same,TGI,UACC-62 melanoma,> 100 µM
same,TGI,SK-MEL-2 melanoma,> 100 µM
same,TGI,SN12C renal,> 100 µM
same,TGI,U251 CNS,> 100 µM
same,TGI,MOLT-4 leukemia,> 100 µM
same,TGI,RXF 393 renal,> 100 µM
same,TGI,HT29 colon,> 100 µM
same,TGI,SW-620 colon,> 100 µM
same,TGI,SF-268 CNS,> 100 µM
same,TGI,M14 melanoma,> 100 µM
same,TGI,NCI-H226 lung,> 100 µM
same,TGI,MDA-N,> 100 µM
CNC(=O)N1CN(c2ccccc2)C2(CCN(CCCC3(c4ccc(F)cc4)OCCO3)CC2)C1=O,TGI,SNB-75 CNS,> 100 µM
same,TGI,HCC-2998 colon,> 100 µM
same,TGI,NCI/ADR-RES ovarian,> 100 µM
same,TGI,SK-OV-3 ovarian,> 100 µM
same,TGI,T-47D breast,> 100 µM
same,TGI,SR leukemia,> 100 µM
same,TGI,UACC-62 melanoma,> 100 µM
same,TGI,SK-MEL-2 melanoma,> 100 µM
same,TGI,SN12C renal,> 100 µM
same,TGI,U251 CNS,> 100 µM
same,TGI,MOLT-4 leukemia,> 100 µM
same,TGI,RXF 393 renal,> 100 µM
same,TGI,HT29 colon,> 100 µM
same,TGI,SW-620 colon,> 100 µM
same,TGI,SF-268 CNS,> 100 µM
same,TGI,M14 melanoma,> 100 µM
same,TGI,NCI-H226 lung,> 100 µM
same,TGI,MDA-N,> 100 µM
Cc1cc(=O)n2nc(CN3CCCCC3)sc2n1,TGI,SNB-75 CNS,> 100 µM
same,TGI,UACC-257 melanoma,> 100 µM
same,TGI,HCC-2998 colon,> 100 µM
same,TGI,NCI/ADR-RES ovarian,> 100 µM
same,TGI,SK-OV-3 ovarian,> 100 µM
same,TGI,T-47D breast,> 100 µM
same,TGI,SR leukemia,> 100 µM
same,TGI,UACC-62 melanoma,> 100 µM
same,TGI,SK-MEL-2 melanoma,> 100 µM
same,TGI,SN12C renal,> 100 µM
same,TGI,U251 CNS,> 100 µM
same,TGI,MOLT-4 leukemia,> 100 µM
same,TGI,RXF 393 renal,> 100 µM
same,TGI,HT29 colon,> 100 µM
same,TGI,SW-620 colon,> 100 µM
same,TGI,SF-268 CNS,> 100 µM
same,TGI,M14 melanoma,> 100 µM
same,TGI,NCI-H226 lung,> 100 µM
same,TGI,MDA-N,> 100 µM
COc1ccc(-c2cc(=O)c3ccccc3[nH]2)c(OC)c1,TGI,SNB-75 CNS,> 100 µM
same,TGI,UACC-257 melanoma,> 100 µM
same,TGI,SK-OV-3 ovarian,> 100 µM
same,TGI,SR leukemia,> 100 µM
same,TGI,UACC-62 melanoma,> 100 µM
same,TGI,SNB-78 CNS,> 100 µM
same,TGI,SN12C renal,> 100 µM
same,TGI,U251 CNS,> 100 µM
same,TGI,MOLT-4 leukemia,> 100 µM
same,TGI,RXF 393 renal,> 100 µM
same,TGI,HT29 colon,> 100 µM
same,TGI,SW-620 colon,> 100 µM
same,TGI,SF-268 CNS,> 100 µM
same,TGI,M14 melanoma,> 100 µM
O=c1oc2cc(O)ccc2c(O)c1C(c1ccccc1F)c1c(O)c2ccc(O)cc2oc1=O,TGI,SNB-75 CNS,> 100 µM
same,TGI,UACC-257 melanoma,> 100 µM
same,TGI,HCC-2998 colon,> 100 µM
same,TGI,NCI/ADR-RES ovarian,> 100 µM
same,TGI,SK-OV-3 ovarian,> 100 µM
same,TGI,T-47D breast,> 100 µM
same,TGI,SR leukemia,> 100 µM
same,TGI,UACC-62 melanoma,> 100 µM
same,TGI,SK-MEL-2 melanoma,> 100 µM
same,TGI,SN12C renal,> 100 µM
same,TGI,U251 CNS,> 100 µM
same,TGI,MOLT-4 leukemia,> 100 µM
same,TGI,RXF 393 renal,> 100 µM
same,TGI,HT29 colon,> 100 µM
same,TGI,SW-620 colon,> 100 µM
same,TGI,SF-268 CNS,> 100 µM
same,TGI,M14 melanoma,> 100 µM
same,TGI,NCI-H226 lung,> 100 µM
same,TGI,MDA-N,> 100 µM
CC(=NNC(=S)Nc1ccc(C)cc1)c1cccc(C(C)=NNC(=S)Nc2ccc(C)cc2)n1,TGI,SNB-75 CNS,85 µM
same,TGI,UACC-257 melanoma,69.7 µM
same,TGI,HCC-2998 colon,> 100 µM
same,TGI,NCI/ADR-RES ovarian,58.8 µM
same,TGI,SK-OV-3 ovarian,97.6 µM
same,TGI,T-47D breast,> 100 µM
same,TGI,SR leukemia,27.1 µM
same,TGI,UACC-62 melanoma,> 100 µM
same,TGI,SK-MEL-2 melanoma,> 100 µM
same,TGI,SN12C renal,> 100 µM
same,TGI,U251 CNS,97 µM
same,TGI,MOLT-4 leukemia,22.9 µM
same,TGI,RXF 393 renal,72 µM
same,TGI,HT29 colon,> 100 µM
same,TGI,SW-620 colon,59.8 µM
same,TGI,SF-268 CNS,> 100 µM
same,TGI,M14 melanoma,47.7 µM
same,TGI,NCI-H226 lung,73.6 µM
same,TGI,MDA-N,> 100 µM
Cc1ccccc1N=Nc1ccc(N/N=C2/CCCNC2=O)c(C)c1,TGI,UACC-257 melanoma,> 100 µM
same,TGI,HCC-2998 colon,> 100 µM
same,TGI,NCI/ADR-RES ovarian,> 100 µM
same,TGI,SK-OV-3 ovarian,> 100 µM
same,TGI,T-47D breast,> 100 µM
same,TGI,SR leukemia,> 100 µM
same,TGI,UACC-62 melanoma,> 100 µM
same,TGI,SK-MEL-2 melanoma,> 100 µM
same,TGI,SN12C renal,> 100 µM
same,TGI,U251 CNS,> 100 µM
same,TGI,MOLT-4 leukemia,> 100 µM
same,TGI,RXF 393 renal,> 100 µM
same,TGI,HT29 colon,> 100 µM
same,TGI,SW-620 colon,> 100 µM
same,TGI,SF-268 CNS,> 100 µM
same,TGI,M14 melanoma,> 100 µM
same,TGI,NCI-H226 lung,> 100 µM
same,TGI,MDA-N,> 100 µM
Cc1ccc(NC(=S)N/N=C(/c2ccccc2)c2ccccn2)cc1,TGI,SNB-75 CNS,5.16 µM
same,TGI,UACC-257 melanoma,1.9 µM
same,TGI,HCC-2998 colon,21 µM
same,TGI,NCI/ADR-RES ovarian,> 80.2 µM
same,TGI,SK-OV-3 ovarian,9.29 µM
same,TGI,T-47D breast,12.6 µM
same,TGI,SR leukemia,> 20.5 µM
same,TGI,UACC-62 melanoma,10.1 µM
same,TGI,SK-MEL-2 melanoma,15.1 µM
same,TGI,SN12C renal,10.1 µM
same,TGI,U251 CNS,12.9 µM
same,TGI,MOLT-4 leukemia,> 12.3 µM
same,TGI,RXF 393 renal,12.7 µM
same,TGI,HT29 colon,20.3 µM
same,TGI,SW-620 colon,20.9 µM
same,TGI,SF-268 CNS,1.32 µM
same,TGI,M14 melanoma,2.21 µM
same,TGI,NCI-H226 lung,2.07 µM
same,TGI,MDA-N,19.5 µM
COc1ccc(O)c(/C(C)=N/NC(=S)N(C)C)c1,TGI,SNB-75 CNS,> 100 µM
same,TGI,UACC-257 melanoma,> 100 µM
same,TGI,HCC-2998 colon,> 100 µM
same,TGI,NCI/ADR-RES ovarian,> 100 µM
same,TGI,SK-OV-3 ovarian,> 100 µM
same,TGI,T-47D breast,> 100 µM
same,TGI,SR leukemia,> 100 µM
same,TGI,UACC-62 melanoma,> 71.6 µM
same,TGI,SK-MEL-2 melanoma,> 100 µM
same,TGI,SN12C renal,> 100 µM
same,TGI,U251 CNS,> 100 µM
same,TGI,MOLT-4 leukemia,> 100 µM
same,TGI,RXF 393 renal,> 100 µM
same,TGI,HT29 colon,> 100 µM
same,TGI,SW-620 colon,> 100 µM
same,TGI,SF-268 CNS,> 100 µM
same,TGI,M14 melanoma,> 100 µM
same,TGI,NCI-H226 lung,> 100 µM
same,TGI,MDA-N,> 100 µM
CC12CCC([C@H](C(O)C3CCCCC3)C1=O)C2(C)C (stereo not given in full),TGI,SNB-75 CNS,> 100 µM
same,TGI,UACC-257 melanoma,> 100 µM
same,TGI,HCC-2998 colon,> 100 µM
same,TGI,NCI/ADR-RES ovarian,> 100 µM
same,TGI,SK-OV-3 ovarian,> 100 µM
same,TGI,T-47D breast,> 100 µM
same,TGI,SR leukemia,> 100 µM
same,TGI,UACC-62 melanoma,> 100 µM
same,TGI,SK-MEL-2 melanoma,> 100 µM
same,TGI,SN12C renal,> 100 µM
same,TGI,U251 CNS,> 100 µM
same,TGI,MOLT-4 leukemia,> 100 µM
same,TGI,RXF 393 renal,> 100 µM
same,TGI,SW-620 colon,> 100 µM
same,TGI,SF-268 CNS,> 100 µM
same,TGI,M14 melanoma,> 100 µM
same,TGI,NCI-H226 lung,> 100 µM
same,TGI,MDA-N,> 100 µM
